Source: patent US20220152051A1, “APPLICATION OF GLYCOCHOLIC ACID IN PREPARATION OF ANTITUMOR DRUGS” (DALIAN UNIVERSITY, priority 2019, published 2022)

How the values were obtained:
[1] = tested on: 4T1 (mouse breast cancer cells); assay: In-vitro anti-tumor experiment (CCK-8), 4T1 cells; format: cell-based; settings: for concentration at the highest point of the inhibition rate: 4T1 cells, highest inhibition rate at 12 h
Description: 3.1 Cells at a logarithmic growth phase are collected, the concentration of the cells is respectively regulated into 5×10^4 cells/ml by the 1640 culture medium and the DMEM culture medium, and 100 μl of cell suspension is added into a 96-well plate. 3.2 After culture is carried out for 24 h at the temperature of 37° C. at 5% CO2, the concentration gradient of glycocholic acid respectively of 0.1 nmol/L, 0.2 nmol/L, 0.4 nmol/L, 0.8 nmol/L, 1.6 nmol/L, 3.2 nmol/L and 6.4 nmol/L is added into 4T1 mouse breast cancer cells, the concentration gradient of glycocholic acid respectively of 0.02 μmol/L, 0.04 μmol/L, 0.08 μmol/L, 0.16 μmol/L, 0.32 μmol/L, 0.64 μmol/L and 1.28 μmol/L is added into MCF-7 cells, the concentration gradient of glycocholic acid respectively of 0.02 μmol/L, 0.04 μmol/L, 0.08 μmol/L, 0.16 μmol/L, 0.33 μmol/L, 0.66 μmol/L and 1.32 μmol/L is added into MDA-MB-468 cells, the concentration gradient of glycocholic acid respectively of 0.02 μmol/L, 0.04 μmol/L, 0.08 μmol/L, 0.16 μmol/L, 0.32 μmol/L, 0.64 μmol/L and 1.28 μmol/L is added into NIH:OVCAR-3 cells, the concentration gradient of glycocholic acid respectively of 0.02 μmol/L, 0.04 μmol/L, 0.08 μmol/L, 0.16 μmol/L, 0.32 μmol/L, 0.64 μmol/L and 1.28 μmol/L is added into RL-95-2 cells, set up five duplicated wells and meanwhile, set up a blank group and a control group. 3.3 Add CCK-8 reagent after 12 h, 24 h, 36 h, 48 h and 60 h, and incubate for 3 h, and after incubation is completed, the absorption value of each well is measured at OD450 nm of the microplate reader. 3.4 An inhibition rate of each concentration of glycocholic acid for tumor cells is obtained by utilizing a formula of 3.1 Cells at a logarithmic growth phase are collected, the concentration of the cells is regulated into 5×10^4 cells/ml by the 1640 culture medium, and 100 μl of cell suspension is added into a 96-well plate. […] 3.3 Add CCK-8 reagent after 12 h, 24 h, 36 h, 48 h and 60 h, incubate for 3 h, and after incubation is completed, the absorption value of each well is measured at OD450 nm of the microplate reader. […]

[2] = tested on: MCF-7 (human breast cancer cells); assay: In-vitro anti-tumor experiment (CCK-8), MCF-7 cells; format: cell-based
Description: (§1) 3.1 Cells at a logarithmic growth phase are collected, the concentration of the cells is respectively regulated into 5×10^4 cells/ml by the 1640 culture medium and the DMEM culture medium, and 100 μl of cell suspension is added into a 96-well plate. […] 3.3 Add CCK-8 reagent after 12 h, 24 h, 36 h, 48 h and 60 h, and incubate for 3 h, and after incubation is completed, the absorption value of each well is measured at OD450 nm of the microplate reader. […]

[3] = tested on: MDA-MB-468 (human breast cancer cells); assay: In-vitro anti-tumor experiment (CCK-8), MDA-MB-468 cells; format: cell-based
Description: as §1

[4] = tested on: NIH:OVCAR-3 (human ovarian cancer cells); assay: In-vitro anti-tumor experiment (CCK-8), NIH:OVCAR-3 cells; format: cell-based
Description: as §1

[5] = tested on: RL95-2 (human endometrial cancer cells); assay: In-vitro anti-tumor experiment (CCK-8), RL95-2 cells; format: cell-based
Description: as §1

[6] = tested on: 4T1 mouse breast cancer cells; assay: Tumor inhibition rate by animal model (4T1 tumor-bearing BABL/c mice); format: in vivo; settings: 15 mg/kg intragastric twice/day for two weeks, 4T1 tumor in BABL/c mice
Description: 1. Materials: 30 female 10-week-old BABL/c mice purchased from the SPF Experimental Animal Center of the Dalian Medical University; and 4T1 tumor cells purchased from the Shanghai Cell Bank of the Chinese Academy of Sciences. 2.1 Modeling: 4T1 mouse breast cancer cells at a logarithmic growth phase are collected, and the concentration of the cells is adjusted to 2×10^6 cells/ml with PBS; and 0.1 ml of cell suspension is injected under the right armpits of the mice by a sterile syringe. 2.2 Administration: intragastric administration of 15 mg/kg of glycocholic acid is started on the second day after modeling (twice/day), 0.2 mL each time, the equal volume of distilled water is administrated to the control group, and administration is continuously carried out for two weeks. The mice are fasted on the night of the last administration, the mice are sacrificed on the fifteenth day by a cervical dislocation method, tumor tissues under the armpits of the mice are aseptically stripped and weighed, and the tumor inhibition rate is calculated according to a formula of […]

FXR gene expression = assay: Real-time PCR of specific target RNA expression in 4T1 cells; format: cell-based, mouse; settings: 0.8 nmol/L, 12 h, vs negative control
Description: 2. Method: RNA of the 4T1 cells intervened by glycocholic acid is extracted, and after reverse transcription, the Real-time RCP is carried out to measure the changes in the RNA expression of the specific target of glycocholic acid.

FXR protein expression = assay: Western blot of specific target protein expression in 4T1 cells; format: cell-based, mouse; settings: 0.8 nmol/L, 12 h
Description: 2. After proteins of 4T1 cells intervened by glycocholic acid are extracted, by degeneration treatment, changes in the expression of the related proteins are measured according to the Western blot flow.

[7] = highest inhibition rate at 36 h

## C[C@H](CCC(=O)NCC(=O)O)[C@H]1CC[C@H]2[C@@H]3[C@H](O)C[C@@H]4C[C@H](O)CC[C@]4(C)[C@H]3C[C@H](O)[C@]12C [glycocholic acid]
[1]
  concentration at the highest point of the inhibition rate: 0.8 nmol/L
[1]; 4T1 mouse breast cancer cells, CCK-8, 12 h
  IC50: 0.01 to 0.1 nM
[2]; Homo sapiens, MCF7, CCK-8, 36 h
  IC50: 640 to 1000 nM
[2]; [7]
  concentration at the highest point of the inhibition rate: 1.28 µmol/L
[3]; Homo sapiens, CCK-8, 36 h
  IC50: 330 to 660 nM
[3]; [7]
  concentration at the highest point of the inhibition rate: 1.32 µmol/L
[4]; Homo sapiens, CCK-8, 48 h
  IC50: 160 to 320 nM
[4]; highest inhibition rate at 48 h
  concentration at the highest point of the inhibition rate: 1.28 µmol/L
[5]; Homo sapiens, CCK-8, 36 h
  IC50: 320 to 640 nM
[5]; [7]
  concentration at the highest point of the inhibition rate: 1.28 µmol/L
[6]; day 15
  average mouse tumor mass: 0.247 ± 0.08 g
[6]; vs control group
  tumor inhibition rate: 42.83%
FXR gene expression
  expression of related RNA (FXR gene) after intervention: 1.5 times
FXR protein expression
  expression of the specific target protein (FXR) in tumor cells: increased

## C[C@H](CCC(=O)NCC(=O)[O-])[C@H]1CC[C@H]2[C@@H]3[C@H](O)C[C@@H]4C[C@H](O)CC[C@]4(C)[C@H]3C[C@H](O)[C@]12C.[Na+] [sodium glycocholate]
[1]
  concentration at the highest point of the inhibition rate: 0.7 nmol/L
